From US12065443B2, “Compounds and pharmaceutical compositions thereof for the treatment of diseases” (priority 2017, dated 2024)

Legend:
SIK1 = target: T1, SIK1 (Homo sapiens, UniProt P57059); assay: biochemical; conditions: 33P radioactive SIK kinase assay, AMARA peptide, 10 μM ATP; read-out: SIK1 IC50
T1 construct: purchased Carna Biosciences 02-131
How it was run: (§1)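 Read-out: ^33P incorporated into AMARA peptide, counted on filter plates, taken as kinase activity. Reactions start on addition of labeled/unlabeled ATP to enzyme plus substrate and end with phosphoric acid. Controls: 1% DMSO (negative) and 10 μM staurosporine (positive), final.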

SIK3 = target: T2, SIK3 (Homo sapiens, UniProt Q9Y2K2); assay: biochemical
T2 construct: purchased SignalChem S12-11G-100
How it was run: as §1

SIK2 = target: T3, SIK2 (Homo sapiens, UniProt Q9H0K1); assay: biochemical; conditions: 33P radioactive SIK kinase assay, AMARA peptide, 10 μM ATP
T3 construct: purchased ThermoFisher Scientific PV4792
How it was run: as §1

[1] = tested on: LPS-induced TNFα secretion in monocyte-derived macrophages (MdM); assay: MdM assay: LPS-triggered TNFα (ELISA); format: cell-based, human; conditions: Homo sapiens, Macrophage, LPS-triggered TNFα inhibition
Protocol: This assay evaluates illustrative compounds of the invention for their inhibition of LPS-induced TNFα and LPS triggered IL-10 secretion in monocyte-derived macrophages.
PBMCs are isolated from human blood samples (buffycoats). The buffy coat is aseptically transferred into a 50 mL Falcon tube, and diluted 1/2 in PBS. Falcon tubes are filled with 20 mL Lymphoprep™, on top of which 25 mL of the buffy coat is carefully added, tubes are centrifuged for 35 min at 400 g in temperature controlled centrifuge, without brake, at 25° C. PBMCs are aspirated from the white interface layer between sample and Lymphoprep™. PBMCs are washed five times in PBS.
PBMCs are centrifuged at 300×g for 10 min and resuspended at a density of 1.0E07 cells/80 μL Miltenyi buffer (PBS, pH 7.4, 1% FBS, 2 mM EDTA).
Starting from this point of the protocol all steps are performed on ice. 20 μL of CD14+ micro-beads are added per 1.0E07 cells, the tube is mixed and incubated for 15 min in the fridge at 4° C. Cell suspension volume is adjusted to total volume of 100 mL using Miltenyi buffer, mixed gently and subsequently centrifuged for 10 min at 300× g. Supernantant is discarded and cell pellet is resuspended in 12 mL of Miltenyi buffer.
Four LS columns are placed in the MACS Separator (magnet) from Miltenyi Biotec, and are prewet by rinsing with 3 mL of MACS buffer per column. Three mL of cell suspension is added onto the column (max 1*10^8 of labelled cells/column), and columns are subsequently washed 3 times with 3 mL of Miltenyi buffer.
The columns are removed from the magnets, and 5 mL of Miltenyi buffer are added to the column to flush out the CD14+ fraction by pushing the plunger into the column. The flushed fractions are collected in a fresh 50 mL Falcon and volume is adjusted to 30 mL using Miltenyi buffer, cells are centrifuged for 10 min at 300× g. The obtained cell pellet is resuspended in 10 mL RPMI w/o FBS, and cell density is determined using a hematologic analyser (Sysmex XS-500i).
On day 10, MdMs are triggered and compound is added.
A compound dilution plate is made in 100% DMSO by 3-fold dilution of 10 mM stock solution. An intermediate dilution plate (10× final concentration) is made by diluting the compound dilution plate 50-fold in RPMI medium.
Medium is carefully removed from cell plates using multichannel pipette, and replaced by 80 μL fresh medium. 10 μL of the 10× final concentration compound is added to the cells and incubated for 1 hour at 37° C. before addition of trigger. No trigger conditions/trigger conditions are spiked with equal final DMSO concentrations of 0.2% DMSO. 10 μL of 10×LPS (final conc. 200 ng/mL) solution are added to all wells except for the ‘no trigger wells’ where 10 μL medium is added. Supernatant is collected after 2 h (IL-10 determination) and after 20 h (TNFα determination) of LPS triggering.
The plate is then washed once with PBST (PBS+0.05% Tween20) and once with PBS followed by the addition of 100 μL of blocking buffer (1% Bovine Serum Albumin (BSA)-5% Sucrose) and plates are sealed and incubated for at least 4 h at RT. After washing the plate once with PBST and once with PBS, 40 μL of standard or sample are added (TNFα standard curve is prepared using a 1/2 serial dilution starting from 16000 pg/mL; dilutions are made in dilution buffer (PBS+1% BSA)). Plates are washed twice with PBST, and once with PBS, after which 35 μL of the detection antibody is added (final concentration 0.25 μg/mL diluted in dilution buffer) and plates are incubated for at least 2 h at RT. Plates are washed twice with PBST, and once with PBS, where after 35 μL of Strep-HRP conjugate (0.5 μg/mL final concentration diluted in dilution buffer) is added. Plates are incubated in the dark, at RT for at least 45 min but no longer than 1 hour. Plates are washed twice with PBST, and once with PBS.

T1 sequence (P57059 whole entry): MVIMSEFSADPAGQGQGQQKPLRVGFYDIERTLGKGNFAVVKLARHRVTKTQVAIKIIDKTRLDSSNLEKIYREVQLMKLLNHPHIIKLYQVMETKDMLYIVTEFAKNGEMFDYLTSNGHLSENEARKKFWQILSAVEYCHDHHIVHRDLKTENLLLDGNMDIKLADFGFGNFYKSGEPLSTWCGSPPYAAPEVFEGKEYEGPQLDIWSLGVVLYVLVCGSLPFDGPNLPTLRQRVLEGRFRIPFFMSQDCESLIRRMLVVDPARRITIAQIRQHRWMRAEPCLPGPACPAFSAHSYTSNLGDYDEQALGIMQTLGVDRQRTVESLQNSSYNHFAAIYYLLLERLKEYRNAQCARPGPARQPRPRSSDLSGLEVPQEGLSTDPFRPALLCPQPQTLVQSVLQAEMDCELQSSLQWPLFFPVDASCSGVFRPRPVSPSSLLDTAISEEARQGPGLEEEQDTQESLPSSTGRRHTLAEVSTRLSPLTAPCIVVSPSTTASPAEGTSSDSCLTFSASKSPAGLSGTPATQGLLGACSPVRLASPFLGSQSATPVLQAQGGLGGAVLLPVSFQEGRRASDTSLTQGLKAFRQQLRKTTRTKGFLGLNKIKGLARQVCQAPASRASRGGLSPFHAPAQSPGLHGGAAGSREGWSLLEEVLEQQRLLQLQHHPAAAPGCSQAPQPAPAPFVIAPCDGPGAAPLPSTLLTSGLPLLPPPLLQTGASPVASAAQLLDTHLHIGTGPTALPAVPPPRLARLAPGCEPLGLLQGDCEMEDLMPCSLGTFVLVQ
T3 sequence (Q9H0K1 whole entry): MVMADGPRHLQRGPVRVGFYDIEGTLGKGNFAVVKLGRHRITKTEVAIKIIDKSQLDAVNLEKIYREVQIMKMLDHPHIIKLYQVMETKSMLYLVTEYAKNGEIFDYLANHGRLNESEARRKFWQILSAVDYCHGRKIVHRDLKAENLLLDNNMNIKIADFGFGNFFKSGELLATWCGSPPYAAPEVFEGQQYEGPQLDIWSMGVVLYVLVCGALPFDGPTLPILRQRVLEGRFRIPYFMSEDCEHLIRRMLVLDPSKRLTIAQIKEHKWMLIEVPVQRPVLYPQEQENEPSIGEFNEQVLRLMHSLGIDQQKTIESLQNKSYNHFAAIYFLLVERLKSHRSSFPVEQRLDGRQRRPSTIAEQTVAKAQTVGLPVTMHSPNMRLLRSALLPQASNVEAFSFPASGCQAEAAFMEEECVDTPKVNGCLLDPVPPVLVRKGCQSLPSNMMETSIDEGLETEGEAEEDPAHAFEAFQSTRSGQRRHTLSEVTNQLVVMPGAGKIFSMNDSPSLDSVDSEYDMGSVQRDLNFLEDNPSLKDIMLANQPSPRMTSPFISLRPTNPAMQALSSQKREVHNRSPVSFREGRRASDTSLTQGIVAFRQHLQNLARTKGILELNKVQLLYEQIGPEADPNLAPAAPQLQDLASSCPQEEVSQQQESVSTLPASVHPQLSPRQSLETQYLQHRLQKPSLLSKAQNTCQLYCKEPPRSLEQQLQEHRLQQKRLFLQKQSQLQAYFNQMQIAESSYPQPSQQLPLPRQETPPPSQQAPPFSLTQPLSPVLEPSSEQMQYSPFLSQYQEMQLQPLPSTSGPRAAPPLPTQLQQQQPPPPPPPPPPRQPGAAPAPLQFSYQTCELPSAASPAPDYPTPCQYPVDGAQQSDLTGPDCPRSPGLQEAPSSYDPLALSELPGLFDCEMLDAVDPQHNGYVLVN
T2 sequence (Q9Y2K2 whole entry): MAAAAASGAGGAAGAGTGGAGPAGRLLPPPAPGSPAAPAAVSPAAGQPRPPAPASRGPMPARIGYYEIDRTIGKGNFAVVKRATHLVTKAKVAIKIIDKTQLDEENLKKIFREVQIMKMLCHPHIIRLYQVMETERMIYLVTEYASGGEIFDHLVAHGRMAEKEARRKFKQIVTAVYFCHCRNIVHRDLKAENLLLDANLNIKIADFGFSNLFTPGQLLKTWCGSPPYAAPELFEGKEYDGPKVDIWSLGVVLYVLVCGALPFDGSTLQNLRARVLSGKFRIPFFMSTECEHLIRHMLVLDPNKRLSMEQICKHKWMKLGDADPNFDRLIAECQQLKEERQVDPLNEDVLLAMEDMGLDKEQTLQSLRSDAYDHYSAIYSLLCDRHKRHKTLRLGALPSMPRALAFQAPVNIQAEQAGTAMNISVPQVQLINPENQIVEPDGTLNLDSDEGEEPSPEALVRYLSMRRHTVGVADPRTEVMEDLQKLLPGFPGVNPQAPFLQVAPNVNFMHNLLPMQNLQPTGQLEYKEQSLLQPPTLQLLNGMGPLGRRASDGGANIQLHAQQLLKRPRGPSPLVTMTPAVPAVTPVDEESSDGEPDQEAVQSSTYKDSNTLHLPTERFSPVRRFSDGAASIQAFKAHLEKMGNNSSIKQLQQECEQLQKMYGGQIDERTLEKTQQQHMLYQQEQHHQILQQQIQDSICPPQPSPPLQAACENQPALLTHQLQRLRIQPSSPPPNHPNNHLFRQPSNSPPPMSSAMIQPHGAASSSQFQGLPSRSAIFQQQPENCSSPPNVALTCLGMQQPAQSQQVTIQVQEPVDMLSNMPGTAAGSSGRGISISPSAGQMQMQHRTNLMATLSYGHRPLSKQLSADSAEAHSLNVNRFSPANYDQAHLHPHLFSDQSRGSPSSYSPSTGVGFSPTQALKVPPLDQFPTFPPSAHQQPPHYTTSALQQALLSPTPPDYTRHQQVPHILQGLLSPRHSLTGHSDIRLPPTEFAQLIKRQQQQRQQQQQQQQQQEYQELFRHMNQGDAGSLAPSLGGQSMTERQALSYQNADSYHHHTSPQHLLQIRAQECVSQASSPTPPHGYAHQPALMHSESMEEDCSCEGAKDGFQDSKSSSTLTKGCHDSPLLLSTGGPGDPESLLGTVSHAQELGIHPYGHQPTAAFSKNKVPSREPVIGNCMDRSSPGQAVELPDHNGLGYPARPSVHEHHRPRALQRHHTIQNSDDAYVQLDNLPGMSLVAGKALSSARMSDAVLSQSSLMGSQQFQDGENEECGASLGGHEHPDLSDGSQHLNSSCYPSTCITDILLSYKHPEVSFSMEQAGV

Row | SMILES | IC50 (SIK1) [nM] | IC50 (SIK3) [nM] | IC50 (SIK2) [nM] | EC50 [1] [nM]
1 | COc1cc(-c2cnc3cc(-c4cnn(CC(=O)OCC5CCC5)c4)ccn23)cc(OC)c1C(=O)NCC(F)(F)F [Cpd 238, cyclobutylmethyl 2-[4-[3-[3,5-dimethoxy-4-(2,2,2-trifluoroethyl-carbamoyl)phenyl]imidazo[1,2-a]pyridin-7-yl]pyrazol-1-yl]acetate] | 0.01 to 10 | 0.01 to 10 | 0.01 to 10 | 0.1 to 100
2 | COc1ncc(-c2ccn3c(-c4cc(OC)c(C(=O)NCC(F)(F)F)c(OC)c4)cnc3c2)cn1 [compound 241, 2,6-dimethoxy-4-[7-(2-methoxypyrimidin-5-yl)imidazo[1,2-a]pyridin-3-yl]-N-(2,2,2-trifluoroethyl)benzamide] | 100 to 500 | 10 to 100 | 100 to 500 | 100 to 1000
3 | CCNC(=O)c1c(OC)cc(-n2cnc3cc(-c4cccnc4)ccc32)cc1OC [compound 2, N-ethyl-2,6-dimethoxy-4-[5-(3-pyridyl)benzimidazol-1-yl]benzamide] | 100 to 500 | 10 to 100 | 100 to 500 | 1000 to 5000
4 | COc1cc(-n2cnc3cc(-c4cnn(C)c4)ccc32)cc(OC)c1C(=O)N[C@@H]1C[C@H]1C(F)F [compound 157] | 10 to 100 | 10 to 100 | 10 to 100 | 100 to 1000
5 | COc1cc(-c2cnc3cc(-c4cnn(CC(=O)OC5CCOC5)c4)ccn23)cc(OC)c1C(=O)NCC(F)(F)F (stereo not shown) [Cpd 237, tetrahydrofuran-3-yl 2-[4-[3-[3,5-dimethoxy-4-(2,2,2-trifluoroethyl-carbamoyl)phenyl]imidazo[1,2-a]pyridin-7-yl]pyrazol-1-yl]acetate] | 0.01 to 10 | 0.01 to 10 | 0.01 to 10 | 100 to 1000
6 | COc1cc(-n2cnc3cc(-c4cnn(C)c4)ccc32)cc(OC)c1C(=O)NCCN [compound 163, N-(2-aminoethyl)-2,6-dimethoxy-4-[5-(1-methylpyrazol-4-yl)benzimidazol-1-yl]benzamide] | 10 to 100 | 10 to 100 | 10 to 100 | > 5000
7 | COc1cc(-c2cnc3cc(-c4cnn(CC(=O)OC(C)C)c4)ccn23)cc(OC)c1C(=O)NCC(F)(F)F [Cpd 231, isopropyl 2-[4-[3-[3,5-dimethoxy-4-(2,2,2-trifluoroethyl-carbamoyl)phenyl]imidazo[1,2-a]pyridin-7-yl]pyrazol-1-yl]acetate] | 0.01 to 10 | 0.01 to 10 | 0.01 to 10 | 0.1 to 100
8 | COc1cc(-n2cnc3cc(-c4cnn(C)c4)ccc32)cc(OC)c1C(=O)N[C@@H]1C[C@H]1CO [compound 156, N-[(1R,2R)-2-(hydroxymethyl)cyclopropyl]-2,6-dimethoxy-4-[5-(1-methylpyrazol-4-yl)benzimidazol-1-yl]benzamide] | 10 to 100 | 10 to 100 | 10 to 100 | 1000 to 5000
9 | COc1cc(-c2cnc3cc(-c4cnn(C)c4)ccn23)cc(NCCO)c1C(=O)NCC(F)(F)F [compound 205, 2-(2-hydroxyethylamino)-6-methoxy-4-[7-(1-methylpyrazol-4-yl)imidazo[1,2-a]pyridin-3-y 1]-N-(2,2,2-trifluoroethyl)benzamide] | 10 to 100 | 0.01 to 10 | 0.01 to 10 | 0.1 to 100
10 | COc1cc(-c2cnc3cc(-c4cnn(C)c4)ccn23)cc(OC)c1C(=O)NC(C)C [compound 171, N-isopropyl-2,6-dimethoxy-4-[7-(1-methylpyrazol-4-yl)imidazo[1,2-a]pyridin-3-yl]benzamide] | 10 to 100 | 10 to 100 | 10 to 100 | 0.1 to 100
11 | COc1cc(-n2cnc3cc(-c4cnn(C)c4)ccc32)cc(OC)c1C(=O)N[C@@H]1CC[C@H]1O [compound 159, N-[(1R,2R)-2-hydroxycyclobutyl]-2,6-dimethoxy-4-[5-(1-methylpyrazol-4-yl)benzimidazol-1-yl]benzamide] | 10 to 100 | 10 to 100 | 10 to 100 | 100 to 1000
12 | COc1cc(-n2cnc3cc(-c4cnn(C)c4)ccc32)cc(OC)c1C(=O)NC1CCCC[C@H]1N (stereo in doubt) [compound 139, N-[(1R,2R)-2-aminocyclohexyl]-2,6-dimethoxy-4-[5-(1-methylpyrazol-4-yl)benzimidazol-1-yl]benzamide] | 0.01 to 10 | 0.01 to 10 | 0.01 to 10 | 1000 to 5000
13 | CCNC(=O)c1c(OC)cc(-c2cnc3cc(-c4cnn(C5CCNCC5)c4)ccn23)cc1OC(F)F [compound 149, 2-(difluoromethoxy)-N-ethyl-6-methoxy-4-[7-[1-(4-piperidyl)pyrazol-4-yl]imidazo[1,2-a]pyridin-3-yl]benzamide] | 0.01 to 10 | 0.01 to 10 | 0.01 to 10 | 100 to 1000
14 | CCn1cc(-c2ccc3c(c2)ncn3-c2cc(OC)c(C(=O)NC3CCC3)c(OC)c2)cn1 [compound 26, N-cyclobutyl-4-[5-(1-ethylpyrazol-4-yl)benzimidazol-1-yl]-2,6-dimethoxy-benzamide] | 10 to 100 | 10 to 100 | 10 to 100 | 100 to 1000
15 | COc1cc(-c2cnc3cc(-c4cnn(CC(=O)OC5CC5)c4)ccn23)cc(OC)c1C(=O)NCC(F)(F)F [compound 234, cyclopropyl 2-[4-[3-[3,5-dimethoxy-4-(2,2,2-trifluoroethyl-carbamoyl)phenyl]imidazo[1,2-a]pyridin-7-yl]pyrazol-1-yl]acelate] | 0.01 to 10 | 0.01 to 10 | 0.01 to 10 | 0.1 to 100
16 | COc1cc(-n2cnc3cc(-c4cn(C)nn4)ccc32)cc(OC)c1C(=O)NCC(F)(F)F [compound 160, 2,6-dimethoxy-4-[5-(1-methyltriazol-4-yl)benzimidazol-1-yl]-N-(2,2,2-trifluoroethyl)benzamide] | 10 to 100 | 10 to 100 | 10 to 100 | 100 to 1000
17 | CCn1cc(-c2ccc3c(c2)ncn3-c2cc(OC)c(C(=O)NCCC(F)(F)F)c(OC)c2)cn1 [compound 44, 4-[5-(1-ethylpyrazol-4-yl)benzimidazol-1-yl]-2,6-dimethoxy-N-(3,3,3-trifluoropropyl)benzamide] | 10 to 100 | 10 to 100 | 10 to 100 | 100 to 1000
18 | COc1cc(-c2cnc3cc(-c4cncnc4)ccn23)cc(OC)c1C(=O)NCC(F)(F)F [compound 242, 2,6-dimethoxy-4-(7-pyrimidin-5-ylimidazo[1,2-a]pyridin-3-yl)-N-(2,2,2-trifluoroethyl)benzamide] | 100 to 500 | 10 to 100 | 100 to 500 | 1000 to 5000
19 | CCNC(=O)c1c(OC)cc(-c2cnc3cc(-c4cnn(C(F)F)c4)ccn23)cc1OC(F)F [compound 151, 2-(difluoromethoxy)-4-[7-[1-(difluoromethyl)pyrazol-4-yl]imidazo[1,2-a]pyridin-3-yl]-N-ethyl-6-methoxy-benzamide] | 0.01 to 10 | 0.01 to 10 | 0.01 to 10 | 0.1 to 100
